Patent US20180228801A1, “Method for Enhancing Learning Ability and Memory of Patients with Alzheimer's Disease using Mocetinostat” (National Taiwan Normal University, priority 2017, published 2018)

Tests used:
[1] = system: mice with oligomeric Aβ25-35 or saline injected into hippocampal CA1; assay: Morris Water Maze memory test; assay type: in vivo, mice (C57BL/6J)
Description: (§1) Further, in some embodiments of the present invention, C57BL/6J strain male mice (12 week old) are used as a subject in need. After mice are allowed to adapt to the environment for 6 days, mice are anesthetized with Avertin (0.4 g/kg; purchased from Sigma). The mice are fixed on a stereotactic apparatus for operation, followed by injecting oligomeric Aβ25-35 (10 nM, 3 μL) into bilateral hippocampal CA1 (AP: […] relative to the bregma; ML: ±[…] relative to the midline; DV: […] relative to the skull) on day 7. MGCD0103 and equal volume of vehicle (saline) are intraperitoneal (i.p.) injected once a day from day 8, the day after said operation, for 29 days. On day 24, the Open Field Test is performed; on day 26, the EPM is performed; on day 28, the Y-maze is performed; on days 30 to 36, MWM is performed; and on day 37, mice are euthanized for pathological analysis.
MWM is a test for observing spatial learning and memory of mice by placing a platform in a wide pool. […] The behavior of finding the platform relates to a complex memory process within the brain, including 1) collecting the visual information (such as shape information of rectangles, circles and triangles) with respect to spatial positioning, and 2) processing, sorting, memorizing, fixing and recalling said information. In particular, the mice are placed in a pool filled with milky white non-toxic advertising pigment (used to make the water become opaque to hide the platform so that the mice may not know the position of the platform at the beginning), and are allowed to explore in search of the platform (which is fixed in a predetermined quadrant) underwater. The test is split into several phases as follows: 1) exploration phase: Place the mouse in the water and leave it there for 1 minute. If the mouse cannot find the platform in time, then move the mouse to the platform and leave there for 20 seconds. Then, place the mouse at a dry location and allow to rest until the next experiment; 2) acceptance phase: place the mouse into the water maze at four specific positions in turn in order to test whether the mouse can find the platform or not. Such training is repeated four times a day and continued for 4 days (each mouse is trained a total of 16 times). After 4 days of training, the learning ability of the mouse is measured in testing. After 24 hours of last testing trial, platform was removed and the mouse to freely swim in the pool and observe whether the mouse remembers the position of the platform or not (long-term spatial memory test). The swimming path is recorded by a CCD camera and analyzed with an image tracking system (EthoVision-XT).

[2] = system: primary hippocampus neurons; assay: Primary hippocampus neurons damaged by oligomeric Aβ25-35, immune-fluorescent staining (NeuN, MAP2); assay type: cell-based, mouse (C57BL/6J); conditions: 48 hours after 50 μM oligomeric Aβ25-35, vs group treated with Aβ25-35
Description: The method of culturing mouse primary hippocampus neurons follow from a modified method from the prior art (Seibenhener and Wooten, 2012), including: obtaining a 16-18 day old embryo from a C57BL/6J strain pregnant female mouse after euthanasia, obtaining hippocampus tissue of the embryo and digesting the tissue with 0.05% trypsin at 37° C. for 15 minutes, and seeding 3×10^4 cells per well in a 48-well plate coated with Poly-L-lysine (100 μg/mL); wherein the components of the medium includes: Neurobasal Medium® (Gibco™; ThermoFisher Scientific, USA) adding 2% of B-27® Additive (Gibco™; ThermoFisher), 0.5 mM of glutamine (Gibco™; ThermoFisher), 25 μM of glutamate (Sigma-Aldrich, USA), 20 unit/mL of penicillin/streptomycin solution (Gibco™; ThermoFisher Scientific, USA), 1 mM of 4-(2-hydroxyethyl)-1-piperazineethanesulfonic acid) (HEPES) (Sigma-Aldrich), and 1% of heat inactivated Donor Horse Serum (Gibco™; ThermoFisher). Primary hippocampus neurons are cultured in an incubator in an environment of 37° C. and 5% CO2.
In some embodiments, experiments should be performed when said cells are in an Alzheimer's disease state. […] Further, 50 μM of oligomeric Aβ25-35 are applied for 1 hour, and then a high dose (70 nM) and low dose (35 nm) of MGCD0103 is applied for 48 hours on day 9. Finally, the cells are collected for immune-fluorescent staining.
The collected cells are analyzed with immune-fluorescence staining. First, fixing the cells with 4% of paraformaldehyde (PFA) (Sigma-Aldrich) for 30 minutes; rinsing the cells three times with PBST with a time interval of 10 minutes so as to remove remaining PFA; blocking the cells with 10% fetal bovine serum (FBS) for 2 hours; adding NeuN (1:1000; Milipore, USA) and MAP2 (1:1000; Milipore, USA) primary antibodies and allowing reaction at 4° C. for 16 hours; then allowing reaction with secondary antibodies at 37° C. for 2 hours; finally, staining nucleus with […] (DAPI) (Sigma-Aldrich) and analyzing to obtain values such as numbers of neurons, lengths of synapses, and numbers of branches with a High Content Micro-Imaging Acquisition and Screening System and MetaXpress (purchased from Molecular Devices).

[3] = system: mice with oligomeric Aβ25-35 injected into bilateral hippocampal CA1; assay: Open Field Test; assay type: in vivo, mice (C57BL/6J); conditions: for time spent at the central area (anxiety): Aβ25-35 mice, vs Aβ25-35 alone
Description: as §1
In an embodiment, OFT is performed to said mice. The mice are placed in a central area of a white box (30 cm×30 cm×30 cm). Then, mice are allowed spontaneously walk for 10 minutes, and the time that mice spend at the central area (15 cm×15 cm×15 cm) in the first 5 minutes is recorded. Since mice tend to spend time at a peripheral area of an open field when anxious, observing the time spent in the central zone there by the mice will give an indication of the level of anxiety of the mice. In addition, counting the total distance that the mice have moved in the last 5 minutes may determine an index of spontaneous exercise ability of the mice. After finishing the test for each mouse, the box was wiped with 70% and 30% (v/v) of ethanol solution to remove remaining odor in order to avoid affecting other test results.

PSD95 = assay: Western blot, PSD95; assay type: in vivo, mice (C57BL/6J); conditions: hippocampus
Description: as §1

inactivated GSK3β (pS9) = assay: Western blot, inactivated GSK3β (pS9); assay type: in vivo, mice (C57BL/6J); conditions: Aβ25-35 mice, hippocampus
Description: as §1

[4] = saline-injected (normal) mice, high dose 0.5 mg/kg i.p.
[5] = saline-injected (normal) mice, low dose 0.01 mg/kg i.p.
[6] = high dose 0.5 mg/kg i.p. once a day

For `Nc1ccccc1NC(=O)c1ccc(CNc2nccc(-c3cccnc3)n2)cc1` [MGCD0103, N-(2-Aminophenyl)-4-[[(4-pyridin-3-ylpyrimidin-2-yl)amino]methyl] benzamide], the “learning curve, time required to reach the platform over 4 training days” value (from here on “learning curve … over 4 training days”) ([1]; Aβ25-35 mice, high dose 0.5 mg/kg i.p.) was “reduced time required to reach the platform”, the “time required to reach the platform, testing on day 5” value (“time required … on day 5” below) ([1]; Aβ25-35 mice, high dose 0.5 mg/kg i.p., vs Aβ25-35 alone) was “significantly less” and the “time spent at the target quadrant after removing the platform (long-term memory)” value (from here on “time spent at the target quadrant”) ([1]; Aβ25-35 mice, high dose 0.5 mg/kg i.p., vs Aβ25-35 group without treatment) was “significantly increased”. For the same compound, the “learning curve … over 4 training days” value ([1]; Aβ25-35 mice, low dose 0.01 mg/kg i.p.) was “reduced time required to reach the platform”, the “time required … on day 5” value ([1]; Aβ25-35 mice, low dose 0.01 mg/kg i.p., vs Aβ25-35 alone) was “significantly less” and the “time spent at the target quadrant” value ([1]; Aβ25-35 mice, low dose 0.01 mg/kg i.p., vs Aβ25-35 group without treatment) was “significantly increased”. The swimming velocity ([1]; all groups, low and high dose, saline or Aβ25-35 mice) was “same velocity”, the “time required … on day 5” value ([1]; saline-injected (normal) mice treated with MGCD0103, dose not stated) was “significantly increased” and the “learning curve … over 4 training days” value [1, 4] was “does not significantly decrease”. For the same compound, the “time spent at the target quadrant” value [1, 4] was “significantly decreased”, the “learning curve … over 4 training days” value [1, 5] was “does not significantly decrease” and the “time spent at the target quadrant” value [1, 5] was “significantly decreased”. For the same compound, the lengths of neurites ([2]; high dose (70 nM)) was “significantly improved”, the “numbers of neuron cells (NeuN+)” value ([2]; high dose (70 nM)) was “significantly improved” and the lengths of neurites ([2]; low dose (35 nM)) was “significantly improved”. The “numbers of neuron cells (NeuN+)” value ([2]; low dose (35 nM)) was “significantly improved”, the “time spent at the central area (anxiety)” value [3, 6] was “significantly increase” and the “time spent at the central area (anxiety)” value ([3]; low dose 0.01 mg/kg i.p. once a day) was “significantly increase”. For the same compound, the “total moving distance (spontaneous exercise ability)” value [3, 6] was “does not influence”, the “total moving distance (spontaneous exercise ability)” value ([3]; low dose 0.01 mg/kg i.p. once a day, vs group treated with saline) was “reduced” and the “expression of PSD95” value (PSD95) was “no significant difference”. For the same compound, the “expression of inactivated GSK3β (pS9)” value (inactivated GSK3β (pS9)) was “considerably increased”.
